Measured values published in ChEMBL document CHEMBL1150750, “Modified taxols, 4. Synthesis and biological activity of taxols modified in the side chain” (J Nat Prod, 1988).
In brackets after ≈: the same amount, converted by molar mass.

What was measured:
P388 [1] = assay: In vivo cytotoxicity against mouse P388 cells at 6.5 mg/kg; assay type: functional
P388 [2] = assay: In vivo cytotoxicity against mouse P388 cells at 26 mg/kg; assay type: functional
P388 [3] = assay: In vivo cytotoxicity against mouse P388 cells at 13 mg/kg; assay type: functional
KB = assay: Cytotoxicity against human KB cells; assay type: functional; settings: for EC50: Homo sapiens, KB, read-out: ED50 (the source's name)
P388 [4] = assay: In vivo cytotoxicity against mouse P388 cells at 3.25 mg/kg; assay type: functional
P388 [5] = assay: In vivo cytotoxicity against mouse P388 cells at 5 mg/kg; assay type: functional
P388 [6] = assay: In vivo cytotoxicity against mouse P388 cells at 10 mg/kg; assay type: functional
P388 [7] = assay: In vivo cytotoxicity against mouse P388 cells at 2.5 mg/kg; assay type: functional
P388 [8] = assay: In vivo cytotoxicity against mouse P388 cells at 20 mg/kg; assay type: functional
P388 [9] = assay: In vivo cytotoxicity against mouse P388 cells at 40 mg/kg; assay type: functional
P388 [10] = assay: In vivo cytotoxicity against mouse P388 cells at 22 mg/kg; assay type: functional
P388 [11] = assay: In vivo cytotoxicity against mouse P388 cells at 44 mg/kg; assay type: functional
P388 [12] = assay: In vivo cytotoxicity against mouse P388 cells at 11 mg/kg; assay type: functional
[13] = Stability in water assessed as decomposition to taxol after 24 hrs; assay type: physicochemical; settings: buffer
[14] = Chemical stability assessed as decomposition to taxol at pH 6.6 after 20 hrs; assay type: physicochemical; settings: buffer, pH 6.6, 20 h
[15] = Solubility in water by HPLC method; assay type: physicochemical

SMILES	EC50 (KB)	T/C (P388 [6])	ED50 (KB)	T/C (P388 [8])	further results
CC(=O)O[C@H]1C(=O)[C@]2(C)[C@@H](OC(C)=O)C[C@H]3OC[C@@]3(OC(C)=O)[C@H]2[C@H](OC(=O)c2ccccc2)[C@]2(O)C[C@H](OC(=O)[C@H](O)[C@@H](NC(=O)c3ccccc3)c3ccccc3)C(C)=C1C2(C)C [PACLITAXEL C7 ACETYLCARBOXYLIC ACID ESTER]	0.004 µg/mL (≈ 0.00446 µM)				T/C (P388 [1]): 124%; T/C (P388 [2]): 130%; T/C (P388 [3]): 127%; T/C (P388 [4]): 128%
CC(=O)O[C@H]1C(=O)[C@@]2(C)[C@H]([C@H](OC(=O)c3ccccc3)[C@]3(O)C[C@H](OC(=O)[C@H](OC(C)=O)[C@@H](NC(=O)c4ccccc4)c4ccccc4)C(C)=C1C3(C)C)[C@]1(OC(C)=O)CO[C@@H]1C[C@@H]2O		130%	2 ×10⁻⁵ ug/ml	140%	T/C (P388 [5]): 127%; T/C (P388 [7]): 127%
CC(=O)O[C@H]1C(=O)[C@@]2(C)[C@H]([C@H](OC(=O)c3ccccc3)[C@]3(O)C[C@H](OC(=O)[C@H](O[Si](C)(C)C(C)(C)C)[C@H](NC(=O)c4ccccc4)c4ccccc4)C(C)=C1C3(C)C)[C@]1(OC(C)=O)CO[C@@H]1C[C@@H]2O	0.3 µg/mL (≈ 0.31 µM)				
CC(=O)O[C@H]1C(=O)[C@@]2(C)[C@H]([C@H](OC(=O)c3ccccc3)[C@]3(O)C[C@H](OC(=O)[C@@H]4OC(=O)N(C(=O)c5ccccc5)[C@H]4c4ccccc4)C(C)=C1C3(C)C)[C@]1(OC(C)=O)CO[C@@H]1C[C@@H]2O	0.2 µg/mL (≈ 0.227 µM)				
CC(=O)O[C@H]1C(=O)[C@]2(C)[C@@H](OC(C)=O)C[C@H]3OC[C@@]3(OC(C)=O)[C@H]2[C@H](OC(=O)c2ccccc2)[C@]2(O)C[C@H](OC(=O)[C@H](OC(C)=O)[C@@H](NC(=O)c3ccccc3)c3ccccc3)C(C)=C1C2(C)C	0.2 µg/mL (≈ 0.213 µM)	105%		100%	T/C (P388 [9]): 104%
CC(=O)O[C@H]1C(=O)[C@@]2(C)[C@H]([C@H](OC(=O)c3ccccc3)[C@]3(O)C[C@H](OC(=O)[C@H](O)[C@@H](NC(=O)c4ccccc4)c4ccccc4)C(C)=C1C3(C)C)[C@]1(OC(C)=O)CO[C@@H]1C[C@@H]2O [PACLITAXEL]		137%	1 ×10⁻⁵ ug/ml	104%	T/C (P388 [5]): 156%; T/C (P388 [7]): 147%
CC(=O)O[C@H]1C(=O)[C@@]2(C)[C@H]([C@H](OC(=O)c3ccccc3)[C@]3(O)C[C@H](OC(=O)[C@H](OC(=O)CCC(=O)O)[C@@H](NC(=O)c4ccccc4)c4ccccc4)C(C)=C1C3(C)C)[C@]1(OC(C)=O)CO[C@@H]1C[C@@H]2O	0.01 µg/mL (≈ 0.0105 µM)				T/C (P388 [10]): 122%; T/C (P388 [11]): 129%; T/C (P388 [12]): 112%
CC(=O)O[C@H]1C(=O)[C@@]2(C)[C@H]([C@H](OC(=O)c3ccccc3)[C@]3(O)C[C@H](OC(=O)[C@H](OC(=O)CCNC(=O)OCc4ccccc4)[C@@H](NC(=O)c4ccccc4)c4ccccc4)C(C)=C1C3(C)C)[C@]1(OC(C)=O)CO[C@@H]1C[C@@H]2O			1 ×10⁻⁴ ug/ml		
CC(=O)O[C@H]1C(=O)[C@@]2(C)[C@H]([C@H](OC(=O)c3ccccc3)[C@]3(O)C[C@H](OC(=O)[C@H](OC(=O)CCN)[C@@H](NC(=O)c4ccccc4)c4ccccc4)C(C)=C1C3(C)C)[C@]1(OC(C)=O)CO[C@@H]1C[C@@H]2O.O=CO		117%	2 ×10⁻⁴ ug/ml	130%	Stability [13]: 90%; T/C (P388 [9]): 140%; Stability [14]: Unstable; solubility [15]: 2200 µg/mL
